Counter-ions that a name gives are not always drawn. Like-named read-outs stand apart in the source and are kept apart here.

The text below walks through data of US5891882A, “Benzopyranopyrrole and benzopyranopyridine α-1 adenergic compounds” (priority 1997, dated 1999).

Assay [1] deals with T1, α-1a adrenoreceptor (bovine) (Bos taurus, UniProt P18130).
T1 construct: expressed in transfected cells; cDNA from TULCO; membranes
T1 sequence (P18130 1-466): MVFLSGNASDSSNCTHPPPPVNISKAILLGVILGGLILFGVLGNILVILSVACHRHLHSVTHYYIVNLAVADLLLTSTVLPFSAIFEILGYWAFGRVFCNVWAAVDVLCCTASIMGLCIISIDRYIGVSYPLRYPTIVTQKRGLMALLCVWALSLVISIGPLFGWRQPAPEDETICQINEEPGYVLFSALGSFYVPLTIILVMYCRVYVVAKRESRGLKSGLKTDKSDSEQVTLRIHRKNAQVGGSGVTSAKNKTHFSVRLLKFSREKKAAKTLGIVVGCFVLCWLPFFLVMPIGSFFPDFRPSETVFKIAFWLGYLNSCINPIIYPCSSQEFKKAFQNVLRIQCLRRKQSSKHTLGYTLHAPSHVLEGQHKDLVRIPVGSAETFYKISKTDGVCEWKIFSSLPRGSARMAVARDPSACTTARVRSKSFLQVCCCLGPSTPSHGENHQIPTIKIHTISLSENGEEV
In words: In vitro [3H]-prazosin radioligand binding, cloned α-1a adrenoreceptor expressed in LTK cells. The text has this: The cDNA clones encoding the α-1 adrenoreceptors (α-1a, α-1b, and α-1d) were obtained from TULCO (Triangle Universities Licensing Consortium, Research Triangle Park, N.C.) and inserted into the eukaryotic expression vector SnaB30. In this vector, expression of the adrenoreceptor gene is under the transcriptional control of an SV40 early promoter. Positive drug selection is provided by a neomycin-resistance gene. Mouse fibroblast cells (LTK) were transfected with the α1 expression plasmids and grown in Dulbecco's modified Eagle's medium (DMEM) containing 10% fetal calf serum and […]. Stable G418-resistant parental lines were generated, with successful expression of adrenoreceptor protein monitored using radioligand binding techniques. Stable single cell clones derived from the parental lines were screened in adrenoreceptor binding assays to identify clones having high adrenoreceptor density. Roller bottle cultures of the cloned lines were used to provide cell membranes for subsequent adrenoreceptor binding characterization studies. A cell line containing the SnaB30 vector expressing the human erythropoietin gene served as a negative control.
For adrenoreceptor binding assays, large scale membrane preparations were utilized in which 6 million cells were seeded into small (450 cm^2) Corning tissue culture roller bottles. 200 mL of DMEM containing 10% fetal calf serum and 300 μM G418 were added to each roller bottle. A 95% air/5% CO2 gas mixture (sterile) was injected into each roller bottle prior to sealing. The bottles were then incubated at 37° C. on a roller rack for 5 days. Cells were re-fed with fresh medium after 3 days in culture.
On the fifth day of culture, growth medium was removed from cells grown in roller bottles, and the cells were washed twice with PBS (Sigma, 120 mM NaCl, 2.7 mM KCl, 10 mM Na2 HPO4 --NaH2 PO4, pH=7.4). Cells were detached from the roller bottles by incubating for 15 minutes at 37° C. in a Tris-EDTA solution (10 mM Tris, 100 mM NaCl, 1 mM EDTA, pH=7.4). The cell suspension from each roller bottle was decanted into tared centrifuge tubes and kept on ice. An aliquot of each cell suspension was generally taken for cell counting. Cells were centrifuged at 3000×G for 5 min at 2°-4° C., washed with PBS and recentrifuged. The supernatant was decanted and the pellet weighed to determine the wet weight of cells. Cells were washed a final time in 40 vol 5 mM Tris-HCl, 5 mM EDTA, pH=7.7, and centrifuged at 40,000×G for 10 minutes. Cells were homogenized in 10 mL of 50 mM Tris-HCl, 5 mM EDTA (pH=7.4) and diluted to 40 mL/tube. Homogenates were centrifuged at 40,000×G for 10 minutes. The supernatant was decanted and the pellets rehomogenized in 50 mM Tris-HCl (pH=7.4) and centrifuged as before. The supernatant was decanted and the homogenate resuspended in 6.25 volumes (per gram wet weight) of 50 mM Tris-HCl and aliquots of the pooled homogenates frozen in liquid N2 and stored at -70° C. until the time of assay. Rat submaxillary glands were used for α-1A adrenoreceptors and were prepared essentially as described (Michel, A. D., Loury, D. N. and Whiting, R. L., Brit. J. Pharmacol. 98: 83-889 (1989)).
Receptor binding assays for α-1 adrenoreceptors were performed essentially as described by Greengrass and Bremner (Eur. J. Pharmacol. 55: 323-326 (1979)). […] Radioactivity was determined by standard liquid scintillation techniques. Data were analyzed as previously described (Hancock, A. A., Kyncl, J. J., Martin, Y. C. and DeBernardis, J. F., J Receptor Res. 8: 23-46 (1988)).

In assay [2] the target is T2, α-1B adrenoreceptor (rat spleen) (Rattus norvegicus, UniProt P15823).
T2 construct: from tissue; host or cells: rat spleen
T2 sequence (P15823 1-515): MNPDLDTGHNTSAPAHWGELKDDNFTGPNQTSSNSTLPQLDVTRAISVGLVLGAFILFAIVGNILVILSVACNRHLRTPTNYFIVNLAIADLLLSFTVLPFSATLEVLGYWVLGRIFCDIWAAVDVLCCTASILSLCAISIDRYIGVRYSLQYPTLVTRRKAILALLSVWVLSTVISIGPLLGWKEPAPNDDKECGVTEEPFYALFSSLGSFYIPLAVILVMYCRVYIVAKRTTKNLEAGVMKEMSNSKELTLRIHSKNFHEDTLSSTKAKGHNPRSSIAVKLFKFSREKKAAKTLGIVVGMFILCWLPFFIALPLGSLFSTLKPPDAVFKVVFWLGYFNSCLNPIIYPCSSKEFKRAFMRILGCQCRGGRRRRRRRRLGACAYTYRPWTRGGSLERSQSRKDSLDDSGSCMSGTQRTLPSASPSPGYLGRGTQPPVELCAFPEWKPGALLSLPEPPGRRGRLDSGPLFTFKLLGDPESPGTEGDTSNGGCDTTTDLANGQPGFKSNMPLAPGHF
In words: Functional antagonism: inhibition of phenylephrine-induced contraction of rat spleen. The class given is cell-based. The text has this:
Functional assays indicative of pharmacologically defined α-1 adrenoreceptors were used to further characterize compounds. Inhibition of phenylephrine (PE)-induced contraction of canine prostate smooth muscle can be correlated with α-1A adrenoreceptor activation. […] For each of these models, agonist dose response curves were repeated against increasing concentrations of test agent to derive a Schild plot [log ([…]) against log (molarity of test agent)] to determine the pA2.

Where [3] appears, read: cloned bovine α-1a in LTK cells, [3H]prazosin 0.2 nM, read-out: Radioligand Binding (Ki; nM) 1a (Bovine).

`COc1cccc2c1[C@@H]1CCN(CCCCn3c(=O)[nH]c4c(sc5ccccc54)c3=O)C[C@H]1CO2` (relative stereo) [Example 87, 3-[4-((±)-trans-10-Methoxy-1,3,4,4a,5,10b-hexahydro-2H-[1]-benzopyrano[3,4-c]pyrido-3-yl)butyl]-[1]-benzthieno[3,2-d]pyrimidine-2,4(1H,3H)-dione hydrochloride] yielded a Ki in assay [1] of 0.227 nM. Further, the Kb in assay [2] is 72400 pM.

`COc1cccc2c1[C@@H]1CCN(CCCCn3c(=O)[nH]c4c(sc5cccnc54)c3=O)C[C@H]1CO2` (relative stereo) [Example 88, 3-[4-((±)-trans-10-Methoxy-1,3,4,4a,5,10b-hexahydro-2H-[1]-benzopyrano[3,4-c]pyrido-3-yl)butyl]-pyrido[2',3':4,5]thieno[3,2-d]pyrimidine-2,4(1H,3H)-dione hydrochloride] displayed a Ki in assay [1] of 0.11 nM. The Kb in assay [2] was 72400 pM.

For `COc1cc2[nH]c(=O)n(CCN3CC[C@H]4c5c(OC)cccc5OC[C@@H]4C3)c(=O)c2cc1OC` (relative stereo) [Example 91, 3-[2-((±)-trans-10-Methoxy-1,3,4,4a,5,10b-hexahydro-2H-[1]-benzopyrano[3,4-c]pyrido-3-yl)ethyl]-6,7-dimethoxy-quinazoline-2,4(1H,3H)-dione hydrochloride], the Ki in assay [1] (setting [3]) amounted to 0.066 nM.

Regarding `COc1ccc2c(n1)sc1c(=O)n(CCCCN3C[C@@H]4COc5cccc(OC)c5[C@@H]4C3)c(=O)[nH]c12` [Example 33, hydrochloride], the inhibition constant Ki in assay [1] (setting [3]) is 0.082 nM. Also, the “In Vitro Characterization (pA2) Rat Spleen” value in assay [2] (rat spleen, phenylephrine-induced contraction, Schild plot) stood at 7.83.
